In patent publication US10392422B2, “Macrocyclic broad spectrum antibiotics” (priority 2014, dated 2019):
Converted amounts (≈) assume the structure as drawn. Read-outs that look alike come from different tables or passages of the source.

Tests used:
Test in all cases: MIC, broth micro-dilution technique (CLSI)
[1] = tested on: Methicillin Resistant Staphylococcus aureus strain USA 300 (NRS384); assay type: cell-based; settings: for MIC: Staphylococcus aureus, 22 h, read-out: MIC (μg/mL) S. aureus
How it was run: (§1)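 Cation-adjusted MHB + 0.002% Tween-80; 10-point 2-fold series starting 64 μg/ml (modified protocol: 4 μg/mL). Final inoculum OD600 0.0005; 35° C, 22 h. MIC per CLSI M07-A8 broth microdilution.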

[2] = tested on: Escherichia coli MC4100 harboring the IMP4213; assay type: cell-based; settings: 35° C., 22 hours; for MIC: Escherichia coli, 22 h
How it was run: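 Susceptibility is tested by broth micro-dilution per CLSI, using ten serial 2-fold dilutions beginning at 64 μg/ml or, in a modified version, 4 μg/mL. The E. coli MC4100 strain carries an imp allele raising outer-membrane permeability.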

MRSA COL (NRS100) = assay type: cell-based, Staphylococcus aureus; settings: for MIC: Staphylococcus aureus, 22 h, read-out: MIC (μg/mL) (COL)
How it was run: as §1

[3] = Table 2 modified protocol: serial 2-fold dilutions starting from 4 μg/mL, 35° C., 22 hours
[4] = Table 2 modified protocol: serial 2-fold dilutions starting from 4 μg/mL
[5] = Table 1 protocol: serial 2-fold dilutions starting from 64 μg/ml, 35° C., 22 hours
[6] = read-out: MIC (μg/mL) E. coli, Table 2 modified protocol: serial 2-fold dilutions starting from 4 μg/mL
[7] = read-out: MIC (μg/mL) E. coli, Table 1 protocol: serial 2-fold dilutions starting from 64 μg/ml

| SMILES | MIC [2, 6] [µg/mL] | MIC [2, 7] [µg/mL] | MIC [1] [µg/mL] | MIC (MRSA COL (NRS100)) [µg/mL] | also measured |
| --- | --- | --- | --- | --- | --- |
| CCCCCCCCCCNCC(=O)N(C)[C@@H]1C(=O)N[C@@H](C)C(=O)N[C@H](C(=O)N[C@@H](C)C(C)=O)Cc2ccc(OCCN)c(c2)-c2cc1ccc2OCCN.O=CO [Compound 269] |  |  |  |  | MIC (μg/mL) S. aureus [1, 3]: 0.38 µg/mL; MIC (μg/mL) E. coli [2, 4]: >4 µg/mL; MIC (μg/mL) (COL) (MRSA COL (NRS100); [3]): 0.13 µg/mL |
| CCCCCCCCCCNCCC(=O)N[C@@H](CCCCN)C(=O)N(C)[C@@H]1C(=O)N[C@@H](C)C(=O)N[C@H](C(=O)N[C@@H](C)C(C)=O)Cc2ccc(OCCN)c(c2)-c2cc1ccc2OCCN.O=CO [Compound 270] |  |  |  |  | MIC (μg/mL) S. aureus [1, 5]: 0.25 µg/mL; MIC (μg/mL) E. coli ([2]; Table 1 protocol: serial 2-fold dilutions starting from 64 μg/ml): 8 µg/mL; MIC (μg/mL) (COL) (MRSA COL (NRS100); [5]): 0.063 µg/mL |
| CCCCCCCCCCNCCC(=O)N[C@@H](CCCCN)C(=O)N(C)[C@@H]1C(=O)N[C@@H](C)C(=O)N[C@H](C(=O)N[C@@H](C)C(=O)c2nnn[nH]2)Cc2ccc(OCCN)c(c2)-c2cc1ccc2OCCN.O=CO [Compound 271] |  |  |  |  | MIC (μg/mL) S. aureus [1, 3]: 0.047 µg/mL; MIC (μg/mL) E. coli [2, 4]: 4 µg/mL; MIC (μg/mL) (COL) (MRSA COL (NRS100); [3]): 0.016 µg/mL |
| CCCCc1ccc(-c2ccc(C(=O)N[C@@H](CCCCN)C(=O)N(C)[C@@H]3C(=O)N[C@@H](C)C(=O)N[C@H](C(=O)N[C@@H](C)C(C)=O)Cc4ccc(OCCN)c(c4)-c4cc3ccc4OCCN)cc2)cc1 [Compound 272] | 0.25 (≈ 0.268 µM) |  |  |  | MIC [1, 3]: 0.13 µg/mL (≈ 0.139 µM); MIC (MRSA COL (NRS100); [3]): 0.063 µg/mL (≈ 0.0675 µM) |
| C[C@@H]1NC(=O)[C@@H](N(C)C(=O)[C@H](CCCCN)NC(=O)c2ccc(-c3ccc(Cl)cc3)cc2)c2ccc(OCCN)c(c2)-c2cc(ccc2OCCN)C[C@@H](C(=O)N[C@@H](C)C(=O)c2[nH]ncc2[N+](=O)[O-])NC1=O [Compound 273] |  |  |  |  | MIC (μg/mL) S. aureus [1, 3]: 0.75 µg/mL (≈ 0.744 µM); MIC (μg/mL) E. coli [2, 4]: 4 µg/mL (≈ 3.97 µM); MIC (μg/mL) (COL) (MRSA COL (NRS100); [3]): 0.38 µg/mL (≈ 0.377 µM) |
| C[C@@H]1NC(=O)[C@@H](N(C)C(=O)[C@H](CCCCN)NC(=O)c2ccc(-c3ccc(Cl)cc3)cc2)c2ccc(OCCN)c(c2)-c2cc(ccc2OCCN)C[C@@H](C(=O)N[C@@H](C)C(=O)c2[nH]ncc2N)NC1=O [Compound 274] | 4 (≈ 4.09 µM) |  |  |  | MIC [1, 3]: > 4 µg/mL; MIC (MRSA COL (NRS100); [3]): 1.5 µg/mL (≈ 1.53 µM) |
| C[C@@H]1NC(=O)[C@@H](N(C)C(=O)[C@H](CCCCN)NC(=O)c2ccc(-c3ccc(Cl)cc3)cc2)c2ccc(OCCN)c(c2)-c2cc(ccc2OCCN)C[C@@H](C(=O)N[C@@H](C)C(=O)c2nc(Cl)n[nH]2)NC1=O [Compound 275] | 2 (≈ 2 µM) |  |  |  | MIC [1, 3]: 1 µg/mL (≈ 1 µM); MIC (MRSA COL (NRS100); [3]): 0.13 µg/mL (≈ 0.13 µM) |
| C[C@@H]1NC(=O)[C@@H](N(C)C(=O)[C@H](CCCCN)NC(=O)c2ccc(-c3ccc(Cl)cc3)cc2)c2ccc(OCCN)c(c2)-c2cc(ccc2OCCN)C[C@@H](C(=O)N[C@@H](C)C(=O)c2c([N+](=O)[O-])cnn2C)NC1=O [Compound 276] |  |  |  |  | MIC (μg/mL) S. aureus [1, 3]: 4 µg/mL (≈ 3.91 µM); MIC (μg/mL) E. coli [2, 4]: 4 µg/mL (≈ 3.91 µM); MIC (μg/mL) (COL) (MRSA COL (NRS100); [3]): 1.5 µg/mL (≈ 1.47 µM) |
| C[C@@H]1NC(=O)[C@@H](N(C)C(=O)[C@H](CCCCN)NC(=O)c2ccc(-c3ccc(Cl)cc3)cc2)c2ccc(OCCN)c(c2)-c2cc(ccc2OCCN)C[C@@H](C(=O)N[C@@H](C)C(=O)N2CCC[C@H]2C(N)=O)NC1=O [Compound 277] |  | 2 (≈ 1.98 µM) |  |  | MIC [1, 5]: 0.75 µg/mL (≈ 0.743 µM); MIC (MRSA COL (NRS100); [5]): 0.25 µg/mL (≈ 0.248 µM) |
| C[C@@H]1NC(=O)[C@@H](N(C)C(=O)[C@H](CCCCN)NC(=O)c2ccc(-c3ccc(C(C)(C)C)cc3)cc2)c2ccc(OCCN)c(c2)-c2cc(ccc2OCCN)C[C@@H](C(=O)O)NC1=O [Compound 278] | 0.031 (≈ 0.0359 µM) |  | 0.25 (≈ 0.289 µM) | 0.094 (≈ 0.109 µM) |  |
| C[C@@H]1NC(=O)[C@@H](N(C)C(=O)[C@H](CCCCN)NC(=O)c2ccc(-c3ccc(C(F)(F)F)cc3)cc2)c2ccc(OCCN)c(c2)-c2cc(ccc2OCCN)C[C@@H](C(=O)O)NC1=O [Compound 279] | 0.25 (≈ 0.285 µM) |  | 2 (≈ 2.28 µM) | 0.5 (≈ 0.571 µM) |  |
| C[C@@H]1NC(=O)[C@@H](N(C)C(=O)[C@H](CCCCN)NC(=O)c2ccc(-c3cc(Cl)cc(Cl)c3)cc2)c2ccc(OCCN)c(c2)-c2cc(ccc2OCCN)C[C@@H](C(=O)O)NC1=O [Compound 280] | 0.25 (≈ 0.285 µM) |  | 0.75 (≈ 0.855 µM) | 0.38 (≈ 0.433 µM) |  |
| C[C@@H]1NC(=O)[C@@H](N(C)C(=O)[C@H](CCCCN)NC(=O)c2ccc(/C=C/c3ccccc3)cc2)c2ccc(OCCN)c(c2)-c2cc(ccc2OCCN)C[C@@H](C(=O)O)NC1=O [Compound 281] | 0.25 (≈ 0.3 µM) |  | 3 (≈ 3.6 µM) | 1 (≈ 1.2 µM) |  |
| C[C@@H]1NC(=O)[C@@H](N(C)C(=O)[C@H](CCCCN)NC(=O)c2cccc(-c3ccc(Cl)cc3)c2)c2ccc(OCCN)c(c2)-c2cc(ccc2OCCN)C[C@@H](C(=O)O)NC1=O [Compound 282] | 1 (≈ 1.19 µM) |  | > 4 | 2 (≈ 2.37 µM) |  |
| C[C@@H]1NC(=O)[C@@H](N(C)C(=O)[C@H](CCCCN)NC(=O)c2ccc(-c3ccccc3Cl)cc2)c2ccc(OCCN)c(c2)-c2cc(ccc2OCCN)C[C@@H](C(=O)O)NC1=O [Compound 283] | 1 (≈ 1.19 µM) |  | 4 (≈ 4.75 µM) | 1.5 (≈ 1.78 µM) |  |
| C[C@@H]1NC(=O)[C@@H](N(C)C(=O)[C@H](CCCCN)NC(=O)c2ccccc2-c2ccc(Cl)cc2)c2ccc(OCCN)c(c2)-c2cc(ccc2OCCN)C[C@@H](C(=O)O)NC1=O [Compound 284] | > 4 |  | > 4 | > 4 |  |
| C[C@@H]1NC(=O)[C@@H](N(C)C(=O)[C@H](CCCCN)NC(=O)c2ccc(Oc3ccc(Cl)cc3)cc2)c2ccc(OCCN)c(c2)-c2cc(ccc2OCCN)C[C@@H](C(=O)O)NC1=O [Compound 285] | 0.25 (≈ 0.291 µM) |  | 2 (≈ 2.33 µM) | 0.5 (≈ 0.582 µM) |  |
| C[C@@H]1NC(=O)[C@@H](N(C)C(=O)[C@H](CCCCN)NC(=O)Cc2ccc(-c3ccc(Cl)cc3)cc2)c2ccc(OCCN)c(c2)-c2cc(ccc2OCCN)C[C@@H](C(=O)O)NC1=O [Compound 286] | 4 (≈ 4.67 µM) |  | 4 (≈ 4.67 µM) | 1.5 (≈ 1.75 µM) |  |
| C[C@@H]1NC(=O)[C@@H](N(C)C(=O)[C@H](CCCCN)NC(=O)c2ccc(-c3ccc(-c4ccccc4)cc3)cc2)c2ccc(OCCN)c(c2)-c2cc(ccc2OCCN)C[C@@H](C(=O)O)NC1=O [Compound 287] | 0.047 (≈ 0.0532 µM) |  | 0.25 (≈ 0.283 µM) | 0.094 (≈ 0.106 µM) |  |
| CCCCc1ccc(-c2cccc(C(=O)N[C@@H](CCCCN)C(=O)N(C)[C@@H]3C(=O)N[C@@H](C)C(=O)N[C@H](C(=O)O)Cc4ccc(OCCN)c(c4)-c4cc3ccc4OCCN)c2)cc1 [Compound 288] | 0.13 (≈ 0.15 µM) |  | 0.5 (≈ 0.579 µM) | 0.25 (≈ 0.289 µM) |  |
| C[C@@H]1NC(=O)[C@@H](N(C)C(=O)[C@H](CCCCN)NC(=O)c2ccc(-c3ccc(Cl)cc3)cc2)c2ccc(OCCN)c(c2)-c2cc(ccc2OCCN)C[C@@H](C(=O)O)NC1=O [Compound 289] |  | 0.5 (≈ 0.594 µM) | 2 (≈ 2.37 µM) | 0.5 (≈ 0.594 µM) |  |
| C[C@@H]1NC(=O)[C@@H](N(C)C(=O)[C@H](CCCCN)NC(=O)c2ccc(-c3ccc(Cl)cc3)cc2)c2cc(C#N)c(O)c(c2)-c2cc(ccc2O)C[C@@H](C(=O)O)NC1=O [Compound 290] |  | 32 (≈ 41 µM) | 64 (≈ 81.9 µM) | 32 (≈ 41 µM) |  |
| CCCCCCCCCCCCCC(=O)N(C)[C@@H]1C(=O)N[C@@H](C)C(=O)N[C@H](C(=O)O)Cc2ccc(OCCN)c(c2)-c2cc1ccc2OCCN [Compound 291] |  | 8 (≈ 11.3 µM) | 8 (≈ 11.3 µM) | 4 (≈ 5.63 µM) |  |
| CCCCCCCCCCCCCC(=O)N[C@@H](CCCCN)C(=O)N(C)[C@@H]1C(=O)N[C@@H](C)C(=O)N[C@H](C(=O)O)Cc2ccc(OCCN)c(c2)-c2cc1ccc2OCCN [Compound 293] |  | 0.063 (≈ 0.0752 µM) | 0.063 (≈ 0.0752 µM) | 0.063 (≈ 0.0752 µM) |  |
| CCCCc1ccc(-c2ccc(C(=O)N[C@@H](CCCCN)C(=O)N(C)[C@@H]3C(=O)N[C@@H](C)C(=O)N[C@H](C(=O)O)Cc4ccc(OCCN)c(c4)-c4cc3ccc4OCCN)cc2)cc1 [Compound 294] |  | 0.063 (≈ 0.0729 µM) | 0.15 (≈ 0.174 µM) | 0.063 (≈ 0.0729 µM) |  |
| CCCCc1ccc(-c2ccc(C(=O)N[C@@H](CCCN)C(=O)N(C)[C@@H]3C(=O)N[C@@H](C)C(=O)N[C@H](C(=O)O)Cc4ccc(OCCN)c(c4)-c4cc3ccc4OCCN)cc2)cc1 [Compound 295] |  | 0.063 (≈ 0.0741 µM) | 0.19 (≈ 0.224 µM) | 0.063 (≈ 0.0741 µM) |  |
| CCCCCCCCc1ccc(C(=O)N[C@@H](CCCN)C(=O)N(C)[C@@H]2C(=O)N[C@@H](C)C(=O)N[C@H](C(=O)O)Cc3ccc(OCCN)c(c3)-c3cc2ccc3OCCN)c(C)c1 [Compound 296] |  | 0.063 (≈ 0.0746 µM) | 0.063 (≈ 0.0746 µM) | 0.063 (≈ 0.0746 µM) |  |
| CCCCCCCCc1ccc(C(=O)N[C@@H](CCCN)C(=O)N(C)[C@@H]2C(=O)N[C@@H](C)C(=O)N[C@H](C(=O)O)Cc3ccc(OCCN)c(c3)-c3cc2ccc3OCCN)c(F)c1 [Compound 297] |  | 0.063 (≈ 0.0743 µM) | 0.38 (≈ 0.448 µM) | 0.063 (≈ 0.0743 µM) |  |
| CCCCCCCCCCCCCC(=O)N[C@@H](CN)C(=O)N(C)[C@@H]1C(=O)N[C@@H](C)C(=O)N[C@H](C(=O)O)Cc2ccc(OCCN)c(c2)-c2cc1ccc2OCCN [Compound 298] | 0.031 (≈ 0.0389 µM) |  | 0.38 (≈ 0.477 µM) | 0.063 (≈ 0.0791 µM) |  |
